This note sets out measurements from patent US20090118332A1, “Therapeutic Agents - 551” (AstraZeneca AB, priority 2006, published 2009).

The structures appear in SMILES notation.

This assay has as its target T1, human Fatty Acid Synthase (Homo sapiens, UniProt P49327).
T1 construct: made in house
Kind of assay: Human FAS enzyme assay (decrease in NADPH fluorescence). In kind it is biochemical. Conditions: for inhibition at 100 µM: % inhibition at a concentration of 100 μmolar; for IC50, inhibition of human Fatty Acid Synthase: FAS enzyme assay, IC50 from fitted sigmoid curves. In short, it runs like this: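 In-house human FAS was preincubated with compound and NADPH for 15 min at room temperature in 0.1 M Tris pH 7.5 with EDTA, glutathione and BSA. Malonyl CoA and acetyl CoA (500 μM and 150 μM in the added mix) were then added for 60 min. IC50 came from time-zero-subtracted NADPH fluorescence (340/460 nm).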

T1 sequence (P49327 whole entry): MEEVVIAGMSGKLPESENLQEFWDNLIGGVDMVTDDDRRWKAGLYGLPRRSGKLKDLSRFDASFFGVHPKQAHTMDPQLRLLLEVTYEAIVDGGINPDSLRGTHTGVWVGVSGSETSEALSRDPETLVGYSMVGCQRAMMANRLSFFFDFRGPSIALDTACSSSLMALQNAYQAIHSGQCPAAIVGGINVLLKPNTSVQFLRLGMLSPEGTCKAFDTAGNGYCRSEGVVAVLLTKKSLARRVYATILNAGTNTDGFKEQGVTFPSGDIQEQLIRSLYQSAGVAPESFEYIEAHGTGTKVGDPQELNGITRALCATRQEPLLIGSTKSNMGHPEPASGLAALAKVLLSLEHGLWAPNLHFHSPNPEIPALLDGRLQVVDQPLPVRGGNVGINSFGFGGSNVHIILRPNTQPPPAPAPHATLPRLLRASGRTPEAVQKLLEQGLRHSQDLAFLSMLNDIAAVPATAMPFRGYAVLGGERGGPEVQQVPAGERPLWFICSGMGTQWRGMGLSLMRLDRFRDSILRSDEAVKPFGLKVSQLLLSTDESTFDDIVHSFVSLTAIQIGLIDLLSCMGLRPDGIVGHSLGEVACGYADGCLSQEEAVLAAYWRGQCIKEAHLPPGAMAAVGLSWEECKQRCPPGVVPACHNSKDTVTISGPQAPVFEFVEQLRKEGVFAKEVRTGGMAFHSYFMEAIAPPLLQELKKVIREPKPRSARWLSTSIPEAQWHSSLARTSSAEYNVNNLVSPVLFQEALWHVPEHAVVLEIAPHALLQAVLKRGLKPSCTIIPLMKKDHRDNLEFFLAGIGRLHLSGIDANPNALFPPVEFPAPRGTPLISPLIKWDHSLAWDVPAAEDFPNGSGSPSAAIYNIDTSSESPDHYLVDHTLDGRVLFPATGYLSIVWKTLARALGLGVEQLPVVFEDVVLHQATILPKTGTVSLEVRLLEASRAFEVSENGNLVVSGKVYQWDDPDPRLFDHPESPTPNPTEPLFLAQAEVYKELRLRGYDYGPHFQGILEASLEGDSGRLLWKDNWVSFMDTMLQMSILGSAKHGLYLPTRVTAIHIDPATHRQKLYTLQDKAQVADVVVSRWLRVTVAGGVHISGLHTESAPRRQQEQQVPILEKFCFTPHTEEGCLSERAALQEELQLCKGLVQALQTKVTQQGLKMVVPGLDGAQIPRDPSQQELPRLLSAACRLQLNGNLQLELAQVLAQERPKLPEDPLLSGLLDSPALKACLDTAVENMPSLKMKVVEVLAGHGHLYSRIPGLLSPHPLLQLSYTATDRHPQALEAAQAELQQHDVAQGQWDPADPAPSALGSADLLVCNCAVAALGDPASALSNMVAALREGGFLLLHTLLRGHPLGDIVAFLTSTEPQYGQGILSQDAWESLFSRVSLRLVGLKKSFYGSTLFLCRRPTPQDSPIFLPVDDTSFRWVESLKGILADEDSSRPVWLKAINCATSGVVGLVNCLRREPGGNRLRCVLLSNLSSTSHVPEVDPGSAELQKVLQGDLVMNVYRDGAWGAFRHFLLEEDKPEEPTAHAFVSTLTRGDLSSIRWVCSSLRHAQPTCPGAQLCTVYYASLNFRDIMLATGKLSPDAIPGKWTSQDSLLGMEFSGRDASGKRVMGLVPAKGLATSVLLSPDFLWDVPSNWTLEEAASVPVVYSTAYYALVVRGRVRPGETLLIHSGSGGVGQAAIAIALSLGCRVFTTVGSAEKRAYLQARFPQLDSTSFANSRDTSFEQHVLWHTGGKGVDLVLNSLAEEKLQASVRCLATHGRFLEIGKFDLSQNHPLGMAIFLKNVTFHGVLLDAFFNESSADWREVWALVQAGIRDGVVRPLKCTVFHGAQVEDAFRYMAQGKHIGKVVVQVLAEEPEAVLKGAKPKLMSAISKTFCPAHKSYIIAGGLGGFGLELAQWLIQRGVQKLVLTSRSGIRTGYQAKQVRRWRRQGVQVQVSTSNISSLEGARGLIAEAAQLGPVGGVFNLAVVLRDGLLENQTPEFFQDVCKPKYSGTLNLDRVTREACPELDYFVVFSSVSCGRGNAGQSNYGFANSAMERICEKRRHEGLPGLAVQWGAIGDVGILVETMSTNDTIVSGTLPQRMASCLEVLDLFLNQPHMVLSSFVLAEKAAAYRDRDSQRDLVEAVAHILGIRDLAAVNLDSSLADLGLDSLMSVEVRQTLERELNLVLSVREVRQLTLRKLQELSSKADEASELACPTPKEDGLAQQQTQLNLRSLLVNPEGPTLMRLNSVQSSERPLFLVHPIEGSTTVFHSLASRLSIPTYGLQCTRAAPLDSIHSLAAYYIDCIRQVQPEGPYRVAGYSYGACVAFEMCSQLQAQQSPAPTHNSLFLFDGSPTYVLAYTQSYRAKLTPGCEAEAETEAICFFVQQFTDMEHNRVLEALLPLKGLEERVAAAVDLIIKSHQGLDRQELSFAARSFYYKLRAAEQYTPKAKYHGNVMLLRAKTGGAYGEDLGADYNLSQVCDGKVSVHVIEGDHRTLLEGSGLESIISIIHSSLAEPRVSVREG

What is called inhibition is the drop in the measured response relative to a control, in per cent. Turning to `Cc1ccc(C(=O)N2CCC(c3ccc(C#N)cc3)CC2)cc1NC(=O)NC(C)c1ccccn1` (centres unmarked) [Example 368, 1-[5-[4-(4-cyanophenyl)piperidine-1-carbonyl]-2-methylphenyl]-3-(1-pyridin-2-ylethyl)urea], the inhibition at 100 µM is 110%.

Consider `Cc1ccc(C(=O)N2CCC(c3ccc(C#N)cc3)CC2)cc1NC(=O)N(C)CCN(C)C` [Example 394, 3-[5-[4-(4-cyanophenyl)piperidine-1-carbonyl]-2-methylphenyl]-1-(2-dimethylaminoethyl)-1-methylurea], for which the inhibition at 100 µM came to 68.7%. As for `COC(=O)[C@@H](NC(=O)Nc1cc(C(=O)N2CCC(c3ccc(C#N)cc3)CC2)ccc1C)C(C)C` [Methyl (2S)-2-[[5-[4-(4-cyanophenyl)piperidine-1-carbonyl]-2-methylphenyl]carbamoylamino]-3-methylbutanoate], the “IC50, inhibition of human Fatty Acid Synthase” value was “do not have IC50s in the range of about 0.001 μM to about 30 μM”. `Cc1cc(CNC(=O)Nc2cc(C(=O)N3CCC(c4ccc(C#N)cc4)CC3)ccc2C)[nH]n1` [Example 292, 1-[5-[4-(4-cyanophenyl)piperidine-1-carbonyl]-2-methyl-phenyl]-3-[(5-methyl-2H-pyrazol-3-yl)methyl]urea]: the inhibition at 100 µM came to 95.6%. In the case of `CCOCC1CCCN1C(=O)Nc1cc(C(=O)N2CCC(c3ccc(C#N)cc3)CC2)ccc1C` (centres unmarked) [Example 399, N-[5-[4-(4-cyanophenyl)piperidine-1-carbonyl]-2-methylphenyl]-2-(ethoxymethyl)pyrrolidine-1-carboxamide], the inhibition at 100 µM amounted to 73.3%.

Regarding `Cc1ccc(C(=O)N2CCC(c3ccc(C#N)cc3)CC2)cc1NC(=O)NCCCc1cn[nH]c1C` [Example 200, 1-[5-[4-(4-cyanophenyl)piperidine-1-carbonyl]-2-methyl-phenyl]-3-[3-(3-methyl-2H-pyrazol-4-yl)propyl]urea], the inhibition at 100 µM was 91.8%.

In the case of `Cc1cc(C)c(C(=O)N2CCC(c3ccc(C#N)cc3)CC2)cc1NC(=O)NCCCS(C)(=O)=O` [Example 294, 1-[5-[4-(4-cyanophenyl)piperidine-1-carbonyl]-2,4-dimethyl-phenyl]-3-(3-methylsulfonylpropyl)urea], the inhibition at 100 µM amounted to 92.2%. In the case of `CC(C)NC(=O)Nc1cc(C(=O)N2CCC(c3ccc(C#N)cc3)CC2)ccc1CS(C)(=O)=O` [Example 403, 3-[5-[4-(4-cyanophenyl)piperidine-1-carbonyl]-2-(methylsulfonylmethyl)phenyl]-1-propan-2-ylurea], the inhibition at 100 µM amounted to 79.9%. Consider `CCC(C)NC(=O)Nc1cc(C(=O)N2CCC(c3ccc(C#N)cc3)CC2)ccc1C` (centres unmarked) [Example 226, 1-butan-2-yl-3-[5-[4-(4-cyanophenyl)piperidine-1-carbonyl]-2-methyl-phenyl]urea], for which the inhibition at 100 µM came out at 84.2%. Same read-out and setting: under `Cc1cc(C)n(CCNC(=O)Nc2cc(C(=O)N3CCC(c4ccc(C#N)cc4)CC3)ccc2C)n1` [Example 76, 1-[5-[4-(4-cyanophenyl)piperidine-1-carbonyl]-2-methyl-phenyl]-3-[2-(3,5-dimethylpyrazol-1-yl)ethyl]urea] stands 97.5%. For the compound `Cc1ccc(C(=O)N2CCC(c3ccc(C#N)cc3)CC2)cc1NC(=O)NC1CCCCC1O` (racemic) [Example 187, (RS) 1-[5-[4-(4-cyanophenyl)piperidine-1-carbonyl]-2-methyl-phenyl]-3-(2-hydroxycyclohexyl)urea], the inhibition at 100 µM was determined as 90.4%.

Regarding `CC(=O)N1CCC(NC(=O)Nc2cc(C(=O)N3CCC(c4ccc(F)cc4)CC3)ccc2C)C1` (centres unmarked) [Example 348, 3-(1-acetylpyrrolidin-3-yl)-1-[5-[4-(4-fluorophenyl)piperidine-1-carbonyl]-2-methyl-phenyl]urea], the inhibition at 100 µM was 84.5%. The same measure, in the same setting: under `Cc1ccc(C(=O)N2CCC(c3ccc(C#N)cc3)CC2)cc1NC(=O)NCCN(C)S(C)(=O)=O` [Example 121, 1-[5-[4-(4-cyanophenyl)piperidine-1-carbonyl]-2-methyl-phenyl]-3-[2-(methyl-methylsulfonyl-amino)ethyl]urea] stands 86%.

As to `Cc1ccc(C(=O)N2CCC(c3ccc(C#N)cc3)CC2)cc1NC(=O)NCc1ccoc1` [Example 89, 1-[5-[4-(4-cyanophenyl)piperidine-1-carbonyl]-2-methyl-phenyl]-3-(3-furylmethyl)urea], the inhibition at 100 µM was 93.1%. Same read-out and setting: under `Cc1ccc(C(=O)N2CCC(c3ccc(C#N)cc3)CC2)cc1NC(=O)NCCC(=O)NC(C)C` [Example 129, 3-[[5-[4-(4-cyanophenyl)piperidine-1-carbonyl]-2-methyl-phenyl]carbamoylamino]-N-propan-2-yl-propanamide] stands 99.1%; under `Cc1ccc(C(=O)N2CCC(c3ccc(C#N)cc3)CC2)cc1NC(=O)N[C@H]1CC[C@H](O)CC1` [Example 193, 1-[5-[4-(4-cyanophenyl)piperidine-1-carbonyl]-2-methyl-phenyl]-3-(4-hydroxycyclohexyl)urea], 85.8%; under `Cc1ccc(C(=O)N2CCC(c3ccc(C#N)cc3)CC2)cc1NC(=O)N[C@H]1CCCC[C@H]1N` (relative stereo) [Example 304, 3-[(cis)-2-aminocyclohexyl]-1-[5-[4-(4-cyanophenyl)piperidine-1-carbonyl]-2-methyl-phenyl]urea], 92.8%. Consider `CCCNC(=O)CCCNC(=O)Nc1cc(C(=O)N2CCC(c3ccc(C#N)cc3)CC2)ccc1C` [Example 235, 4-[[5-[4-(4-cyanophenyl)piperidine-1-carbonyl]-2-methyl-phenyl]carbamoylamino]-N-propyl-butanamide], for which the inhibition at 100 µM worked out at 95.8%. Consider `CC(=O)NCCNC(=O)Nc1cc(C(=O)N2CCC(c3ccc(C(F)(F)F)cc3)CC2)ccc1C` [Example 326, N-[2-[[2-methyl-5-[4-[4-(trifluoromethyl)phenyl]piperidine-1-carbonyl]phenyl]carbamoylamino]ethyl]acetamide], for which the inhibition at 100 µM was determined as 91.8%.

As for `Cc1ccc(C(=O)N2CCC(c3ccc(C#N)cc3)CC2)cc1NC(=O)N[C@@H]1CCNC1` [Example 212, 1-[5-[4-(4-cyanophenyl)piperidine-1-carbonyl]-2-methyl-phenyl]-3-[(3R)-pyrrolidin-3-yl]urea], the inhibition at 100 µM was found to be 97%. For `Cc1ccc(C(=O)N2CCC(c3ccc(C#N)cc3)CC2)cc1NC(=O)NCc1cc(=O)[nH]o1` [Example 136, 1-[5-[4-(4-cyanophenyl)piperidine-1-carbonyl]-2-methyl-phenyl]-3-[(3-oxo-1,2-oxazol-5-yl)methyl]urea], the inhibition at 100 µM was 80.9%. Turning to `COc1ccc(C(=O)N2CCC(c3ccc(C#N)cc3)CC2)cc1NC(=O)NC(C)C` [Example 6, 1-[5-[4-(4-cyanophenyl)piperidine-1-carbonyl]-2-methoxy-phenyl]-3-propan-2-yl-urea], the inhibition at 100 µM is 79.6%.

As to `COCCCNC(=O)Nc1cc(C(=O)N2CCC(c3ccc(C#N)cc3)CC2)ccc1C` [Example 154, 1-[5-[4-(4-cyanophenyl)piperidine-1-carbonyl]-2-methyl-phenyl]-3-(3-methoxypropyl)urea], the inhibition at 100 µM is 93%. Consider `Cc1ccc(C(=O)N2CCC(c3ccc(C#N)cc3)CC2)cc1NC(=O)NC(C)c1ccc(F)cc1` (centres unmarked) [Example 88, 1-[5-[4-(4-cyanophenyl)piperidine-1-carbonyl]-2-methyl-phenyl]-3-[1-(4-fluorophenyl)ethyl]urea], for which the inhibition at 100 µM was 87.6%. With `Cc1ccc(C(=O)N2CCC(c3ccc(F)cc3)CC2)cc1NC(=O)NCCN(C)C(=O)OC(C)(C)C` [Example 347, tert-butyl N-[2-[[5-[4-(4-fluorophenyl)piperidine-1-carbonyl]-2-methyl-phenyl]carbamoylamino]ethyl]-N-methyl-carbamate], the inhibition at 100 µM is 86.3%.

As to `Cc1ccc(C(=O)N2CCC(c3ccc(C#N)cc3)CC2)cc1NC(=O)NC(C)Cc1c[nH]c2ccccc12` (racemic) [Example 70, (RS)-1-[5-[4-(4-cyanophenyl)piperidine-1-carbonyl]-2-methyl-phenyl]-3-[1-(1H-indol-3-yl)propan-2-yl]urea], the inhibition at 100 µM is 87.7%.

As for `Cc1ccc(C(=O)N2CCC(c3ccc(C#N)cc3)CC2)cc1NC(=O)NC1CCCN(C)C1` (racemic) [Example 255, (RS)-1-[5-[4-(4-cyanophenyl)piperidine-1-carbonyl]-2-methyl-phenyl]-3-(1-methyl-3-piperidyl)urea], the inhibition at 100 µM came out at 102%.

`COC(=O)[C@H](Cc1cn(C)cn1)NC(=O)Nc1cc(C(=O)N2CCC(c3ccc(C#N)cc3)CC2)ccc1C` [Methyl (2S)-2-[[5-[4-(4-cyanophenyl)piperidine-1-carbonyl]-2-methylphenyl]carbamoylamino]-3-(1-methylimidazol-4-yl)propanoate]: the “IC50, inhibition of human Fatty Acid Synthase” value was “do not have IC50s in the range of about 0.001 μM to about 30 μM”.

Take `Cc1ccc(C(=O)N2CCC(c3ccc(C#N)cc3)CC2)cc1NC(=O)NC1CCC(C(=O)O)CC1` (centres unmarked) [Example 406, 4-[[5-[4-(4-cyanophenyl)piperidine-1-carbonyl]-2-methylphenyl]carbamoylamino]cyclohexane-1-carboxylic acid]: the inhibition at 100 µM was found to be 93.4%. `Cc1ccc(C(=O)N2CCC(c3ccc(C#N)cc3)CC2)cc1NC(=O)N[C@@H]1CCCC[C@@H]1NS(=O)(=O)N(C)C` (relative stereo) [Example 317, 1-[5-[4-(4-cyanophenyl)piperidine-1-carbonyl]-2-methyl-phenyl]-3-[(cis)-2-(dimethylsulfamoylamino)cyclohexyl]urea]: the inhibition at 100 µM is 94.9%. Still for that read-out and setting: under `Cc1ccc(C(=O)N2CCC(c3ccc(C#N)cc3)CC2)cc1NC(=O)NCCCCO` [Example 185, 1-[5-[4-(4-cyanophenyl)piperidine-1-carbonyl]-2-methyl-phenyl]-3-(4-hydroxybutyl)urea] stands 92.6%; under `N#Cc1ccc(C2CCN(C(=O)c3cccc(NC(=O)NCc4ccccc4)c3)CC2)cc1` [Example 14, 1-benzyl-3-[3-[4-(4-cyanophenyl)piperidine-1-carbonyl]phenyl]urea], 90.1%.
